“Also recorded” adds a separate entry of the source. Read-outs that look alike come from different tables or passages of the source.
Assays:
[1] = LogD7.4 determination (octan-1-ol/phosphate buffer, LC-MS); type: physicochemical; conditions: read-out: Log D7.4 (partition coefficient at pH 7.4)
Protocol: LogD7.4 determination. The in-silico prediction tool ALOGPS [4] was used to estimate the octanol-water partition coefficients (log P) of the compounds. […] For each category, two different ratios (volume of octan-1-ol to volume of buffer) were defined as experimental parameters (Table 2).
Equal amounts of phosphate buffer (0.1 M, pH 7.4) and octan-1-ol were mixed and shaken vigorously for 5 min to saturate the phases. The mixture was left until separation of the two phases, and the buffer was retrieved. Stock solutions of the test compounds were diluted with buffer to a concentration of 1 μM. For each compound, three determinations per octan-1-ol:buffer ratio were performed in different wells of a 96-well plate. The respective volumes of buffer-containing analyte (1 μM) were pipetted to the wells and covered by saturated octan-1-ol according to the chosen volume ratio. […] The aqueous phase was transferred to a 96-well plate for analysis by liquid chromatography-mass spectrometry (LCMS, see below).
Results are presented as the mean ± SD of three independent experiments.
LC-MS measurements. […] The system was controlled with the Agilent MassHunter Workstation Data Acquisition software (version B.01.04). The column used was an AtlantisR T3 C18 column (2.1 × 50 mm) with a 3 μm-particle size (Waters Corp., Milford, MA, USA). The mobile phase consisted of eluent A: 10 mM ammonium acetate, pH 5.0 in 95:5, H2O:MeCN; and eluent B: MeCN containing 0.1% formic acid. The flow rate was maintained at 0.6 mL/min. […] MS parameters such as fragmentor voltage, collision energy, and polarity were optimized individually for each drug, and the molecular ion was followed for each compound in the multiple reaction monitoring mode. The concentrations of the analytes were quantified by the Agilent Mass Hunter Quantitative Analysis software (version B.01.04).

[2] = tested on: SH-SY5Y human neuroblastoma cells; assay: Neuroprotection against Aβ1-42-induced toxicity, MTT cell viability assay; type: cell-based; conditions: 50 μM compound, 20 μM Aβ1-42, 24 h, 37 °C
Protocol: Neuroprotective activity assays against Aβ1-42-induced toxicity. From all compounds tested in the above presented assay, the pair 8 and 19 presented the strongest neuroprotective potential, with convincing proof on the importance of the aglycone for the desired neuroprotective effects against H2O2-induced cell injury. […] Here, the MTT assay was used once again to assess cell viability of SH-SY5Y cells treated with 20 μM of Aβ1-42, in the presence of 50 μM of each compound. Similar protocols have been used to screen candidates for AD therapy. Moreover, based on the existing evidence that in situ spontaneous fibrillization of Aβ1-42 in the incubation mixture is important in the triggering of neurotoxic effects, we added the Aβ1-42 peptide fragment dissolved in DMSO to the culture medium prior to incubation, together with each compound in study. […] Even though there is published evidence that undifferentiated SH-SY5Y cells are not as sensitive to Aβ1-42-induced neurite degeneration and apoptosis as differentiated ones, with 20 μM of Aβ1-42 we were able to observe a significant decrease in cellular MTT reduction capacity, corresponding to roughly half of the cell viability rates observed in the non-treated control.
(§1) Neuroprotective assays in human neuroblastoma (SH-SY5Y) cells. […] Differences were considered significant when P < 0.05.

[3] = tested on: SH-SY5Y neuroblastoma cells; assay: Cytotoxic activity of compounds alone, MTT cell viability assay; conditions: 50 μM compound alone, 24 h, 37 °C, 0.5% DMSO, SH-SY5Y
Protocol: Neuroprotective assays in human neuroblastoma (SH-SY5Y) cells. SH-SY5Y cells were grown in Dulbecco’s Modified Eagle Medium (DMEM, Gibco, Life Technologies) supplemented with 10% fetal bovine serum (FBS, Biochrom GmbH) and 1% Penicillin-Streptomycin (Gibco, Life Technologies) in a humidified incubator at 37 °C, 5% CO2. For the neuroprotective activity assay, undifferentiated SGSY-5Y cells were plated onto 96-well flat-bottomed microtiter plates at a density of 1 × 10^4 cells/well in DMEM supplemented with 2% FBS and preincubated for 24 h at 37 °C, 5% CO2. Compounds (stored as 10 mM solutions in DMSO at −20 °C) were then added to achieve a final concentration of 50 μM and, after 30 min, cells were incubated in the presence or absence of 20 μM Aβ protein fragment 1-42 (Sigma-Aldrich, dissolved in DMSO and stored in 2 mM aliquots at −20 °C) or 100 μM of H2O2 (Sigma-Aldrich, dissolved to 10 mM in 0.9% NaCl aqueous solution immediately prior to the assay) overnight at 37 °C, 5% CO2. […] The following morning, 20 μL of a 5 mg/mL solution of 3-(4,5-dimethylthiazol-2-yl)-2,5-diphenyltetrazolium bromide (MTT, Sigma-Aldrich) in PBS (Gibco, Life Technologies) was added to each well and the plates were further incubated for 4 h at 37 °C, followed by the addition of DMSO (200 μL) to each well in order to dissolve the resulting formazan crystals. After 2 h incubating at 37 °C, the optical density (OD) at 540 nm (with a 620 nm reference filter) was measured in an Amersham Biosciences Biotrak II Plate Reader. The percentage of MTT reduction was determined according to Equation (1). […] Differences between experimental conditions were compared for statistical significance by one-way ANOVA followed by a Tukey’s post-test, an analysis carried out using GraphPad Prism Software (LA Jolla, CA, USA). Differences were considered significant when P < 0.05. In order to exclude direct MTT reduction, compounds were also tested in (a) the absence of cells and (b) in the absence of both cells and culture medium, using the same experimental conditions described above. (2) MTT Reduction (% of Control)=[ODsample−ODmedium/ODcell control−ODmedium] × 100 […]
Tabl e S2. Cytotoxic activity of each compound assessed in SH-SY5Y neuroblastoma cells via an MTT cell viability assay.a Comp ound Nr. MTT reduction (% control) p-va l u e vs . untreated cell control (unpai red t-t es t) […]
a Cells were incubated for 24 h at 37 °C, in the presence (50 μM) or absence of each compound.

[4] = molecular target: acetylcholinesterase (AChE) (Electrophorus electricus, UniProt O42275); assay: Acetylcholinesterase inhibition, Ellman's colorimetric assay; type: biochemical; conditions: 100 µM compound
Chain of acetylcholinesterase (AChE) (O42275 24-633): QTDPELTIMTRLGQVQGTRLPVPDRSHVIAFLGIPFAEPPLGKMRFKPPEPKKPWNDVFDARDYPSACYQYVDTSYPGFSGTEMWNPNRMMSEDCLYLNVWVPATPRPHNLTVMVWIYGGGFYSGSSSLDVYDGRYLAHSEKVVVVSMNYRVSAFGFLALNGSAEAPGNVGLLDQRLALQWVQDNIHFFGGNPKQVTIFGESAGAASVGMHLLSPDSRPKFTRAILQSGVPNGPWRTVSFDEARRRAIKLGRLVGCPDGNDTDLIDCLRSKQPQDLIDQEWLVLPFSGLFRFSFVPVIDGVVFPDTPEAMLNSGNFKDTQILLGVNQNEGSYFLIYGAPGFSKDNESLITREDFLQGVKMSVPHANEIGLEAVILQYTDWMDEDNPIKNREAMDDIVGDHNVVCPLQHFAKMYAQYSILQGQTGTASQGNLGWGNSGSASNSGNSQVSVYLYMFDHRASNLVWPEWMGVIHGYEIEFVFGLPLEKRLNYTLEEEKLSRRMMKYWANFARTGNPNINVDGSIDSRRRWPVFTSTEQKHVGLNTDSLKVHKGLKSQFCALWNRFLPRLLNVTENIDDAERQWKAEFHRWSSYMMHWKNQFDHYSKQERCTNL
Protocol: For cholinesterase inhibition tests (acetylcholinesterase (AChE, electrophorus
was kept within 1.25% cuvette concentration.
AChE and at 18.2 µM concentration for BuChE. […]

[5] = molecular target: T1, butyrylcholinesterase (BuChE) (Equus caballus, UniProt P81908); assay: biochemical; conditions: for inhibition at 100 µM: read-out: BuChE inhibitory efficacy (percentage of inhibition); for Butyrylcholinesterase inhibition, ranking in words: 100 µM compound
T1 construct: (BuChE, equine serum); from tissue; host or cells: equine serum
T1 sequence (P81908 whole entry): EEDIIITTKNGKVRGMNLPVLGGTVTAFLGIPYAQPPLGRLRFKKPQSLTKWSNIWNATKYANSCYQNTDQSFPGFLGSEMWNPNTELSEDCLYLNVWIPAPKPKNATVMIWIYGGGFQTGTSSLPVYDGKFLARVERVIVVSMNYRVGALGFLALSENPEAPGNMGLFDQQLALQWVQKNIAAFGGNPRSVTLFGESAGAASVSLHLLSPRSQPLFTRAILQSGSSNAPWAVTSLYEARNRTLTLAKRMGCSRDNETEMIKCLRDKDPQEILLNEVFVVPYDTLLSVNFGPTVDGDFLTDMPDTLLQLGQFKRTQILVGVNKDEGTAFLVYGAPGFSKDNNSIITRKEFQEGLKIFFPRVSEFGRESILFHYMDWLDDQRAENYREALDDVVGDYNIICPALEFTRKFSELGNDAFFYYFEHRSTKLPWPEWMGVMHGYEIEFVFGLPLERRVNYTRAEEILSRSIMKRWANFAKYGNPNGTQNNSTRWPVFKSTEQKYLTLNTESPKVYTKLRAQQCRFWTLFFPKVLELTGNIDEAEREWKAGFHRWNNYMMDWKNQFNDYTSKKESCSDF
Protocol: Experimental procedures for cholinesterase inhibition a s sa y s. For cholinesterase inhibition tests (acetylcholinesterase (AChE, electrophorus
el ec t r ic u s) a n d b ut yr ylcholinesterase (BuChE, equine serum), the Ellman’s cholorimetric assay1 was followed, with minor modifications. DMSO
was kept within 1.25% cuvette concentration. The chromogenic agent DTNB [5,5’-dithiobis(2-nitrobenzoic acid)] was fixed at 0.975 mM
con centration; 0. 1 M phosphate buffer (pH 8. 0) was employed, T = 25 °C, and the reaction was monitored for 125 s. […]
of inhibition, the substrate concentration (acetylthiocholine iodide for AChE; S- butyr ylthiocholine iodide for BuChE) was fixed at 29 µM for
AChE and at 18.2 µM concentration for BuChE.
Lineweaver-Burk plot (or double reciprocal plot, 1/V vs . 1/ [S ]) wa s u se d for estimating both, the mode of inhibition and the inhibition constants […]
Competitive inhibition (inhibitor only bonds the free enzyme):
KKiiii = [II ]KKMM iiaaaa
M i xe d inhibition (inhibitor binds both, the free and the complexed enzyme) :
Uncompetitive (the inhibitors only binds the complexed enzyme):
N on -competitive (inhibitor binds both the free enzyme and the complexed enzyme with equal affinity) :
Table S3. […]
of the synthesized flavone analogues at 100 µ M.
C omp ou n d N o. AChE B uChE

[6] = tested on: SH-SY5Y human neuroblastoma cells; assay: Neuroprotection against H2O2-induced toxicity, MTT cell viability assay; type: cell-based; conditions: 50 μM compound, 100 μM H2O2, 24 h, 37 °C
Text: Neuroprotective activity assays against H2O2-induced toxicity. On the basis of previously described protocols, the flavones and analogues herein synthesized were screened for their neuroprotective effects against H2O2-induced oxidative stress and neuronal damage in SH-SY5Y human neuroblastoma cells by means of a thiazolyl blue tetrazolium bromide (MTT) reduction-based cell viability assay.
as §1

[7] = type: in vitro ADME; conditions: PAMPA, pH 7.4, 16 h
Protocol: Parallel artificial membrane permeability assay (PAMPA). Effective permeability (log Pe) was determined in a 96-well format with PAMPA [34]. For each compound, measurements were performed at pH 7.4 in quadruplicates. Four wells of a deep well-plate were filled with 650 μL of PRISMA HT universal buffer, adjusted to pH 7.4 by adding the requested amount of NaOH (0.5 M). Samples (150 μL) were withdrawn from each well to determine the blank spectra by UV/Vis-spectroscopy (190 to 500 nm, SpectraMax 190, Molecular Devices, Silicon Valley, CA, USA). Then the analyte, dissolved in DMSO (10 mM), was added to the remaining buffer to yield 50 μM solutions. To exclude precipitation, the optical density (OD) was measured at 650 nm, and solutions exceeding OD 0.01 were filtrated. Afterwards, samples (150 μL) were withdrawn to determine the reference spectra. […] The filter membranes at the bottom of the acceptor plate were infused with 5 μL of GIT-0 Lipid Solution and 200 μL of Acceptor Sink Buffer were filled into each acceptor well. The sandwich was assembled, placed in the GutBox^TM, and left undisturbed for 16 h. Then, it was disassembled and samples (150 μL) were transferred from each donor and acceptor well to UV-plates for determination of the UV/Vis spectra.

[8] = octan-1-ol/phosphate buffer, pH 7.4, octan-1-ol/phosphate buffer pH 7.4, 25 °C

SMILES | logD [1, 8] | Neuroprotective effect against Aβ1-42-induced toxicity (MTT cell viability) [2] | MTT reduction (% control) [3] [%] | AChE inhibitory efficacy (percentage of inhibition) [4] | inhibition at 100 µM [5] [%] | logD ([1]; octan-1-ol/phosphate buffer pH 7.4, 25 °C) | Neuroprotective effect against H2O2-induced toxicity (MTT cell viability) [6] | inhibition at 100 µM ([4]; read-out: AChE inhibitory efficacy (percentage of inhibition)) [%] | Ki [5] [µM] | Butyrylcholinesterase inhibition, ranking in words [5] | Mode of inhibition ([5]; BuChE, Lineweaver-Burk plot) | Log Pe (effective permeability) [7] | Ki ([5]; BuChE, Lineweaver-Burk plot, read-out: Kia (inhibition constant)) [µM] | Ki ([5]; BuChE, Lineweaver-Burk plot, read-out: Kib (inhibition constant)) [µM]
O=c1cc(-c2ccc(F)cc2)oc2cc(O)cc(O)c12 [Compound 7, 4′-Fluoro-5,7-dihydroxyflavone] | > 2.5 | contrarily | 109.4 ± 11.4 | n.i . | 23 |  |  |  |  |  |  |  |  | 
O=c1cc(-c2ccccc2)oc2cc(O)cc(O)c12 [Compound 1, chrysin, reference compound] |  |  | 96.2 ± 26.9 |  | 64 | 3.6 ± 0.4 | absence of significant effects | 18 | 32 ± 4 | the most active butyrylcholinesterase inhibitor | Non-* co mp etit iv e in hi bit io n |  |  | 
O=c1cc(-c2ccc(N3CCOCC3)cc2)oc2cc(O)cc(O)c12 [Compound 8, 5,7-Dihydroxy-4′-(morpholin-4-yl)flavone] | > 2.5 | displayed relevant neuroprotective effects against Aβ1-42 | 57.6 ± 25.5 |  |  |  | able to produce statistically significant differences when compared to H2O2 controls |  |  |  |  |  |  | 
O=c1cc(-c2ccc(F)cc2)oc2c([C@@H]3O[C@H](CO)[C@@H](O)[C@H](O)[C@H]3O)c(O)cc(O)c12 [Compound 18, 4′-Fluoro-8-(β-D-glucopyranosyl)-5,7-dihydroxyflavone] | -0.2 ± 0.1 |  | 136.7 ±12.9 |  |  |  |  |  |  |  |  | no detectable permeability; also recorded: Below detection limit |  | 
CCC(C)c1cc(=O)c2c(O)cc(O)cc2o1 (centres unmarked) [Compound 6, 5,7-Dihydroxy-2-(1-methylpropyl)-4H-chromen-4-one] | > 2.5 |  | 109.9 ± 18.7 | n.i . | 46 |  | the increase was not significant |  |  | the most promising one | Mixed inhibition |  | 44 ± 17 | 36 ± 8
